Laboratory results taken from US20030229053A1, “Compounds and methods for the treatment or prevention of flavivirus infections” (Shire BioChem Inc., priority 2001, published 2003).

Each compound was assayed against recombinant HCV NS5B (Hepatitis C virus genotype 1b, UniProt P26663) (assay: biochemical). Settings: flashplate, polyrA/biotinylated-oligo dT, 100 nM NS5B, 2 hrs at room temperature; read-out: RNA pol Assay 2 IC50 (μm).
Chain of recombinant HCV NS5B (P26663 2420-3010 limits assumed): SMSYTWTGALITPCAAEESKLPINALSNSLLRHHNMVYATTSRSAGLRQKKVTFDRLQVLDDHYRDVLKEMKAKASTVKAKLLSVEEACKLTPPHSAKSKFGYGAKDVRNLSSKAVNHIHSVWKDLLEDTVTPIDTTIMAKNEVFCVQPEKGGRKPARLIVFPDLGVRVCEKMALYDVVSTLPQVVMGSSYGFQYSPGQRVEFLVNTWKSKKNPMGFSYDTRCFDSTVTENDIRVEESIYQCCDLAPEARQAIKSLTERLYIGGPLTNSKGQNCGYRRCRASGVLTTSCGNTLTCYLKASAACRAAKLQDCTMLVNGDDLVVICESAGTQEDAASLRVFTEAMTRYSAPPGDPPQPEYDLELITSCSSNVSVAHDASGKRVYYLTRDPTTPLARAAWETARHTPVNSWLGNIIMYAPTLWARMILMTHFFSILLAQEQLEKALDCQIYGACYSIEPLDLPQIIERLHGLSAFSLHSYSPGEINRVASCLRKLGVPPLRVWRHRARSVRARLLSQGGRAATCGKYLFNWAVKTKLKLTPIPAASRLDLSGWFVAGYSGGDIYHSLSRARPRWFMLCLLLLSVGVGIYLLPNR

IC50 [µM]	SMILES
5 to 20	CSc1ccc(-c2ccsc2CN(C(=O)c2ccc(Cl)cc2Cl)[C@@H](Cc2ccccc2)C(=O)O)cc1 [compound #183, 2-{(2,4-Dichloro-benzoyl)-[3-(4-methylsulfanyl-phenyl)-thiophen-2-ylmethyl]-amino}-3-phenyl-propionic acid]
< 5	O=C(O)[C@H](Cc1ccccc1)N(Cc1sccc1-c1ccc(F)cc1)C(=O)c1ccc(Cl)cc1Cl [compound #184, 2-{(2,4-Dichloro-benzoyl)-[3-(4-fluoro-phenyl)-thiophen-2-ylmethyl]-amino}-3-phenyl-propionic acid]
< 5	O=C(O)[C@H](Cc1ccccc1)N(Cc1sccc1-c1cccnc1)C(=O)c1ccc(Cl)cc1Cl [compound #185, 2-[(2,4-Dichloro-benzoyl)-(3-pyridin-3-yl-thiophen-2-ylmethyl)-amino]-3-phenyl-propionic acid]
5 to 20	O=C(O)[C@H](Cc1ccccc1)N(Cc1ccccc1Br)C(=O)c1ccc(Cl)cc1Cl [compound #187, 2-[(2-Bromo-benzyl)-(2,4-dichloro-benzoyl)-amino]-3-phenyl-propionic acid]
5 to 20	CN(C(=O)c1ccc(Cl)cc1Cl)[C@@H](Cc1ccccc1Br)C(=O)O [compound #188, 3-(2-Bromo-phenyl)-2-[(2,4-dichloro-benzoyl)-methyl-amino]-propionic acid]
< 5	CN(C(=O)c1ccc(Cl)cc1Cl)[C@H](Cc1ccc(Br)cc1)C(=O)O [compound #189, 3-(4-Bromo-phenyl)-2-[(2,4-dichloro-benzoyl)-methyl-amino]-propionic acid]
5 to 20	O=C(O)C(Cc1ccccc1)N(C(=O)c1ccc(Cl)cc1Cl)c1cccc(Br)c1 (centres unmarked) [compound #190, 2-[(3-Bromo-phenyl)-(2,4-dichloro-benzoyl)-amino]-3-phenyl-propionic acid]
> 20	O=C(O)[C@H](Cc1ccccc1)N(C(=O)c1ccc(Cl)cc1Cl)c1ccc(Br)cc1 [compound #191, 2-[(4-Bromo-phenyl)-(2,4-dichloro-benzoyl)-amino]-3-phenyl-propionic acid]
